These are literature values, as cited in US12441685B2, “Compounds and methods for treating cancer” (DANA-FARBER CANCER INSTITUTE, INC., priority 2015, dated 2025).

For the data set the following is noted: Phase II study, patients with NBCCS (Tang et al., 2012).

Take `CS(=O)(=O)c1ccc(C(=O)Nc2ccc(Cl)c(-c3ccccn3)c2)c(Cl)c1` [vismodegib]: the “participants who ceased treatment due to serious adverse effects” value was 14 of 26.
